Measured values reported in PubChem BioAssay AID1259408 (Genetic Toxicology Data Bank (GENE-TOX), 2018).
The source made the active and inactive calls. The rule behind the calls is not given here.

Test system: GENE-TOX genotoxicity assays, various organisms and cells
Test: GENE-TOX mutagenicity studies
Conditions: for call: Assay Type: In vivo carcinogenicity studies
[1] = Species/Cell Type: Salmonella typhimurium, Assay Type: Forward and reverse gene mutation, host-mediated assay, Assay Code: HMA+, Evaluation Type: Evaluation A (Pre-1980)
[2] = Species/Cell Type: Salmonella typhimurium (one or more of the five standard strains: TA98, TA100, TA1535, TA1537, and TA1538), Assay Type: Histidine reverse gene mutation, Ames assay, Assay Code: SALT, Evaluation Type: Evaluation A (Pre-1980)
[3] = Species/Cell Type: Escherichia coli polA (W3119 vs P3478), Assay Type: Rec-assay, DNA effects (bacterial DNA repair), Assay Code: RE1+, Evaluation Type: Evaluation A (Pre-1980)
[4] = Species/Cell Type: Salmonella typhimurium (one or more of the five standard strains: TA98, TA100, TA1535, TA1537, and TA1538), Assay Type: Histidine reverse gene mutation, Ames assay, Assay Code: SAL+*, Activation: With metabolic activation, Evaluation Type: Evaluation A (Pre-1980)

SMILES: O=C(COc1ccc(Br)cc1CN1CCCCC1)N/N=C\c1ccccc1
- mutagenic call (Species/Cell Type: Saccharomyces cerevisiae, Assay Type: Reverse gene mutation, Assay Code: YERT, Evaluation Type: Evaluation A (Pre-1980)): no conclusion

SMILES: CN(N=O)C1=Nc2ccc(Cl)cc2C(c2ccccc2)=[N+]([O-])C1
- mutagenic call (Species/Cell Type: Saccharomyces cerevisiae, Assay Type: Mitotic recombination or gene conversion, Assay Code: YEC+*, Activation: With metabolic activation, Evaluation Type: Evaluation A (Pre-1980)): active; positive
- mutagenic call [1]: active; positive

SMILES: O=C1C=Cc2ccc3c4c(ccc1c24)-c1ccccc1C3=O
- mutagenic call (Species/Cell Type: Chinese hamster lung (V79) cells, Assay Type: Forward gene mutation at the HPRT or ouabain locus, Assay Code: V79-, Evaluation Type: Evaluation A (Pre-1980)): inactive; negative
- call (Species/Cell Type: Nonhuman, Assay Code: CCGT, Evaluation Type: Evaluation A (Pre-1980)): no conclusion
- mutagenic call [2]: no conclusion

SMILES: CC(Br)Br
- mutagenic call (Species/Cell Type: Drosophila melanogaster, Assay Type: Sex-linked recessive lethal gene mutation, Assay Code: SRLT, Evaluation Type: Evaluation A (Pre-1980)): no conclusion
- mutagenic call [3]: active; positive
- mutagenic call (Species/Cell Type: Tradescantia species, Assay Type: Gene mutation, Assay Code: TRM-, Evaluation Type: Evaluation A (Pre-1980)): inactive; negative

SMILES: N#CN(CCCC(NC(=O)c1ccccc1)C(N)=O)N=O (configuration not stated)
- mutagenic call [3]: active; positive

SMILES: CCN(CC)CC(O)CNc1c2ccc(Cl)cc2nc2ccc(OC)cc12 (configuration not stated)
- mutagenic call (Species/Cell Type: Mammalian polychromatic erythrocytes, Assay Type: Micronucleus test, chromosome aberrations, Assay Code: MNT+U, Dose Response: Unconfirmed positive response, Evaluation Type: Evaluation A (Pre-1980)): active; positive

SMILES: [Cu+].[Cu].[SH-]
- mutagenic call (Species/Cell Type: Syrian hamster embryo (SA7/SHE) cells, Assay Type: Cell transformation, viral enhanced, Assay Code: CT7+, Evaluation Type: Evaluation A (Pre-1980)): active; positive

SMILES: Cc1ccc(N=Nc2c(O)ccc3ccccc23)c(C)c1
- mutagenic call (Species/Cell Type: Bacillus subtilis (H17 vs M45T), Assay Type: Rec-assay, spot test, DNA effects (bacterial DNA repair), Assay Code: REXT, Evaluation Type: Evaluation A (Pre-1980)): no conclusion
- mutagenic call [4]: active; positive

SMILES: Nc1c(N=Nc2ccc(S(=O)(=O)O)cc2)cc(N=Nc2ccc(S(=O)(=O)O)cc2)c(N)c1N=Nc1ccc(S(=O)(=O)O)cc1
- mutagenic call [2]: no conclusion

SMILES: COC(=O)/C=C(\C)OP(=O)(OC)OC
- mutagenic call (Species/Cell Type: Human, Assay Type: Sister-chromatid exchange (SCE) in vitro, Assay Code: SC1+D, Dose Response: With dose response, Evaluation Type: Evaluation B (Post-1980)): active; positive
- mutagenic call (Species/Cell Type: Tradescantia species, Assay Type: Chromosome aberrations, Assay Code: TRC+, Evaluation Type: Evaluation A (Pre-1980)): active; positive
- mutagenic call (Species/Cell Type: Vicia faba, Assay Type: Chromosome aberrations, Assay Code: VIC+, Evaluation Type: Evaluation A (Pre-1980)): active; positive

SMILES: Cc1cc2c(c3ccc4ccccc4c13)CC(O)C2=O (configuration not stated)
- mutagenic call [4]: active; positive

SMILES: C=CCc1ccc2c(c1)OCO2
- mutagenic call (Species/Cell Type: Drosophila melanogaster, Assay Type: Sex-linked recessive lethal gene mutation, Assay Code: SRL-, Evaluation Type: Evaluation A (Pre-1980)): inactive; negative
- mutagenic call (Species/Cell Type: Escherichia coli polA (W3110 vs P3478), Assay Type: Rec-assay, DNA effects (bacterial DNA repair), Assay Code: RE2+, Evaluation Type: Evaluation A (Pre-1980)): active; positive
- mutagenic call [3]: active; positive
- mutagenic call (Species/Cell Type: Human diploid fibroblasts, Assay Type: Unscheduled DNA synthesis (UDS) in vitro, DNA effects, Assay Code: UDH-*, Activation: With metabolic activation, Evaluation Type: Evaluation A (Pre-1980)): inactive; negative
- mutagenic call (Species/Cell Type: Mammalian polychromatic erythrocytes, Assay Type: Micronucleus test, chromosome aberrations, Assay Code: MNTT, Evaluation Type: Evaluation A (Pre-1980)): no conclusion
- mutagenic call (Species/Cell Type: Mouse, Sex: Male, Assay Type: Sperm morphology, Assay Code: SPIT, Evaluation Type: Evaluation A (Pre-1980)): no conclusion
- call (Species/Cell Type: Nonhuman, Assay Code: CCG+, Evaluation Type: Evaluation A (Pre-1980)): active; positive
- mutagenic call (Species/Cell Type: Nonhuman, Assay Type: Sister-chromatid exchange (SCE) in vitro, Assay Code: SC2+, Evaluation Type: Evaluation B (Post-1980)): active; positive
- mutagenic call (Species/Cell Type: Saccharomyces cerevisiae, Assay Type: Mitotic recombination or gene conversion, Assay Code: YEH+, Evaluation Type: Evaluation A (Pre-1980)): active; positive
- mutagenic call (Species/Cell Type: Salmonella typhimurium (one or more of the five standard strains: TA98, TA100, TA1535, TA1537, and TA1538), Assay Type: Histidine reverse gene mutation, Ames assay, Assay Code: SAL-, Evaluation Type: Evaluation A (Pre-1980)): inactive; negative
- mutagenic call [1]: active; positive
- mutagenic call (Species/Cell Type: Syrian hamster embryo (SHE) cells, Assay Type: Cell transformation, clonal assay, Assay Code: CTC+, Evaluation Type: Evaluation A (Pre-1980)): active; positive
- mutagenic call (Species/Cell Type: Tradescantia species, Assay Type: Gene mutation, Assay Code: TRM+D, Dose Response: With dose response, Evaluation Type: Evaluation A (Pre-1980)): active; positive
